Measurements from patent US9121026B2 (priority 2004, dated 2015).
“Also recorded” adds a separate entry of the source.

Key:
Type in all cases: cell-based, Saccharomyces cerevisiae
[1] = test system: RE700A i PPMA1-HXT7 (ICFP); assay: Growth inhibition of ICFP by 2-DG; conditions: 20 h 28° C., maltose, in percent of growth of RE700A
Protocol: (B) RE700A, ICFP and IT[PDR] were incubated 20 h at 28° C. with maltose (2% (w/v)) as the sole carbon source and the indicated 2-DG concentrations. The optical density was measured at 600 nm every 15 minutes and the integral under the growth curve is calculated. Inhibition of growth of ICFP and IT[PDR] is shown in percent of growth of RE700A. Growth of ICFP was inhibited by 15% at 0.01% (w/v) 2-DG, by 74% at 0.03% (w/v) 2-DG, by 80% at 0.05% (w/v) 2-DG and by 83% at 0.1% (w/v) 2-DG. Growth of IT[PDR] was inhibited by 21% at 0.01% (w/v) 2-DG, by 79% at 0.03% (w/v) 2-DG, by 88% at 0.05% (w/v) 2-DG and by 96% in 0.1% (w/v) 2-DG.
Strain growth: The growth of the strains in liquid medium was determined by measuring the optical density at 600 nm. To obtain growth curves, measurements were performed every 15 min. Alternatively, start and endpoint (after 12-16 h) measurements were carried out.

[2] = test system: RE700A Δpdr1,pdr3 tok1::PPDR5-HXT7; assay: Growth inhibition of RE700A Δpdr1,pdr3 tok1::PPDR5-HXT7 by 2-DG; conditions: RE700A Δpdr1,pdr3 tok1::PPDR5-HXT7, up to a 2-DG concentration of 0.03% (w/v)
Protocol: (A) Growth inhibition of RE700A i PPDR5-HXT7 (IT[PDR]), RE700A Δpdr1 tok1::PPDR5-HXT7, RE700A Δpdr3 tok1::PPDR5-HXT7 and RE700A Δpdr1,pdr3 tok1::PPDR5-HXT7 at increasing 2-DG concentrations. RE700A i PPDR5-HXT7 (IT[PDR]), RE700A Δpdr1 tok1::PPDR5-HXT7, RE700A Δpdr3 tok1::PPDR5-HXT7 and RE700A Δpdr1,pdr3 tok1::PPDR5-HXT7 were incubated 20 h at 28° C. with Maltose (2% (w/v)) as the sole carbon source and 2-DG concentrations as indicated. The optical density was measured at 600 nm every 15 minutes and the integral under the growth curve was calculated. Inhibition of growth caused by 2-DG is shown in percent. The growth of the strain RE700A tok1::PPDR5-HXT7 (IT[PDR]) was inhibited by 50% at 0.02% (w/v) 2-DG. Growth of the strains RE700A Δpdr1 tok1::PPDR5-HXT7 and RE700A Δpdr3 tok1::PPDR5-HXT7 was inhibited by 50% at 0.026% (w/v) 2-DG.
All strains expressing HXT7 were tested for sensitivity to 2-DG. The strains expressing GFP under the control of PPDR5 were additionally analysed for GFP fluorescence in comparison to RE700Ae PPDR5-GFP (strain CQ[PDR]).

[3] = test system: RE700A i PCDR1-HXT7 (IT[CDR1]); assay: Growth inhibition of IT[CDR1] by 2-DG; conditions: 20 h 28° C., maltose, regarding growth in the absence of 2-DG
Protocol: FIG. 7: Growth inhibition of RE700A and IT[CDR1] by 2-DG. RE700A and IT[CDR1] were incubated for 20 h at 28° C. with maltose (2% (w/v)) as the sole carbon source and increasing 2-DG concentrations as indicated. The optical density was measured at 600 nm every 15 minutes and the integral under the growth curve was calculated. Inhibition of growth is shown in percent regarding growth in the absence of 2-DG. Growth of IT[CDR1] was inhibited by 45% at a 2-DG concentration of 0.01% (w/v), by 91% at a 2-DG concentration of 0.03% (w/v), by 92% at a 2-DG concentration of 0.05% (w/v), by 92% at a 2-DG concentration of 0.1% (w/v), by 94% at a 2-DG concentration of 1% (w/v), by 95% at a 2-DG concentration of 2% (w/v) and by 95% at a 2-DG concentration of 3% (w/v).
(3) Integrated screening system for inhibitors of PCDR1: S. cerevisiae strain RE700A was genetically modified as described in Example 1 and 2 to yield strain IT[CDR1], chromosomally expressing HXT7 under the control of the promoter of CDR1 (PCDR1) (for the complete genotype see Table 1). The inhibition of growth of IT[CDR1] by 2-DG was tested. The growth of this strain was inhibited by more than 90% at a 2-DG concentration of 0.03% (w/v) (FIG. 7)

[4] = test system: RE700A i PCDR2-HXT7 (IT[CDR2]); assay: Growth inhibition of IT[CDR2] by 2-DG; conditions: 20 h 28° C., maltose, regarding growth in the absence of 2-DG
Protocol: FIG. 8: Growth inhibition of RE700A and IT[CDR2] by 2-DG. RE700A and IT[CDR2] were incubated for 20 h at 28° C. with maltose (2% (w/v)) as the sole carbon source and increasing 2-DG concentrations as indicated. The optical density was measured at 600 nm every 15 minutes and the integral under the growth curve was calculated. Inhibition of growth is shown in percent regarding growth in the absence of 2-DG. Growth of IT[CDR2] was inhibited by 30% at a 2-DG concentration of 0.1% (w/v), by 79% at a 2-DG concentration of 1% (w/v), by 89% at a 2-DG concentration of 2% (w/v), by 91% at a 2-DG concentration of 3% (w/v).
(4) Integrated screening system for inhibitors of PCDR2: S. cerevisiae strain RE700A was genetically modified as described in Examples 1 and 2 to yield strain IT[CDR2], chromosomally expressing HXT7 under the control of the promoter of CDR2 (PCDR2) (for the complete genotype see Table 1). The inhibition of growth of IT[CDR2] by 2-DG was tested. The growth of this strain was inhibited by 50% at a 2-DG concentration of 1% (w/v) and by 80% at a 2-DG concentration of 2% (w/v) (FIG. 8).

Q: For O=CC[C@@H](O)[C@H](O)[C@H](O)CO [2-DG, 2-deoxy-glucose], which Inhibition of growth ([1]; 0.01% (w/v) 2-DG) is on record?
A: 15%

Q: And the Inhibition of growth ([1]; 0.03% (w/v) 2-DG)?
A: 74%

Q: What about the Inhibition of growth ([1]; 0.05% (w/v) 2-DG) of the same compound?
A: 80%

Q: What about the Inhibition of growth ([1]; 0.1% (w/v) 2-DG) of the same compound?
A: 83%

Q: And the “Growth inhibition / 2-DG sensitivity” value [2]?
A: did not show significant 2-DG sensitivity; also recorded: not significantly inhibited

Q: And the Inhibition of growth ([3]; 0.01% (w/v) 2-DG)?
A: 45%

Q: And the Inhibition of growth ([3]; 0.05% (w/v) 2-DG)?
A: 92%

Q: And the Inhibition of growth ([3]; 0.1% (w/v) 2-DG)?
A: 92%

Q: What about the Inhibition of growth ([3]; 1% (w/v) 2-DG) of the same compound?
A: 94%

Q: And the Inhibition of growth ([3]; 2% (w/v) 2-DG)?
A: 95%

Q: And the Inhibition of growth ([3]; 3% (w/v) 2-DG)?
A: 95%

Q: And the Inhibition of growth ([4]; 0.1% (w/v) 2-DG)?
A: 30%

Q: And the Inhibition of growth ([4]; 3% (w/v) 2-DG)?
A: 91%
